Bases are written 5' to 3'; sugars and linkages follow in the same order, as letters with counts (s phosphorothioate, o phosphodiester; PS: all linkages phosphorothioate). C may stand for cytosine or 5-methylcytosine; the collection does not tell. l = locked nucleic acid (LNA); d = 2'-deoxy (DNA)

This series concerns the target HIF1A. The series is described as follows: HeLa, 100 nM transfected, 24 h, mean of 3. Conditions: ASO.
“TGGCAAGCATCCTGTA (sugars l2 d2 l1 d9 l2, PS)”: the caspase activation (% of PBS control) is 391.
Sequence “TGGCAAGCATCCTGTA (sugars l2 d2 l1 d10 l1, PS)” registered a caspase activation (% of PBS control) of 423.
“TGGCAAGCATCCTGTA (sugars l2 d9 l1 d1 l3, PS)” returned a caspase activation (% of PBS control) of 369.
“TGGCAAGCATCCTGTA (sugars l2 d9 l1 d2 l2, PS)” yielded a caspase activation (% of PBS control) of 424.
In turn, “TGGCAAGCATCCTGTA (sugars l2 d9 l1 d3 l1, PS)” had a caspase activation (% of PBS control) of 413.
“TGGCAAGCATCCTGTA (sugars l2 d9 l2 d1 l2, PS)” came in with a caspase activation (% of PBS control) of 401.
For the sequence “TGGCAAGCATCCTGTA (sugars l2 d9 l2 d2 l1, PS)”, the caspase activation (% of PBS control) turned out to be 422.
Take “TGGCAAGCATCCTGTA (sugars l2 d9 l3 d1 l1, PS)”: the caspase activation (% of PBS control) was found to be 352.
In turn, TGGCAAGCATCCTGTA (sugars l2 d9 l5, PS) displayed a caspase activation (% of PBS control) of 368.
“TGGCAAGCATCCTGTA (sugars l2 d10 l1 d1 l2, PS)” returned a caspase activation (% of PBS control) of 376.
With “TGGCAAGCATCCTGTA (sugars l2 d10 l1 d2 l1, PS)”, the caspase activation (% of PBS control) was 377.
“TGGCAAGCATCCTGTA (sugars l2 d10 l2 d1 l1, PS)” showed a caspase activation (% of PBS control) of 366.
As for TGGCAAGCATCCTGTA (sugars l2 d10 l4, PS), the figure is 346.
“TGGCAAGCATCCTGTA (sugars l2 d11 l1 d1 l1, PS)”: the caspase activation (% of PBS control) turned out to be 369.
Under TGGCAAGCATCCTGTA (sugars l2 d11 l3, PS) stands 365.
Take TGGCAAGCATCCTGTA (sugars l2 d12 l2, PS): the caspase activation (% of PBS control) amounted to 389.
For TGGCAAGCATCCTGTA (sugars l2 d13 l1, PS), the caspase activation (% of PBS control) was determined as 489.
“TGGCAAGCATCCTGTA (sugars l3 d1 l1 d6 l5, PS)” came in with a caspase activation (% of PBS control) of 536.
“TGGCAAGCATCCTGTA (sugars l3 d1 l1 d7 l4, PS)” yielded a caspase activation (% of PBS control) of 377.
As for “TGGCAAGCATCCTGTA (sugars l3 d1 l1 d8 l3, PS)”, the figure is 413.
“TGGCAAGCATCCTGTA (sugars l3 d1 l1 d9 l2, PS)” came in with a caspase activation (% of PBS control) of 382.
Consider “TGGCAAGCATCCTGTA (sugars l3 d1 l1 d10 l1, PS)”, for which the caspase activation (% of PBS control) worked out at 354.
On to “TGGCAAGCATCCTGTA (sugars l3 d8 l1 d1 l3, PS)”, for which the caspase activation (% of PBS control) was 477.
In turn, “TGGCAAGCATCCTGTA (sugars l3 d8 l1 d2 l2, PS)” displayed a caspase activation (% of PBS control) of 297.
Turning to “TGGCAAGCATCCTGTA (sugars l3 d8 l1 d3 l1, PS)”, the caspase activation (% of PBS control) came to 230.
Sequence “TGGCAAGCATCCTGTA (sugars l3 d8 l2 d1 l2, PS)” yielded a caspase activation (% of PBS control) of 414.
“TGGCAAGCATCCTGTA (sugars l3 d8 l2 d2 l1, PS)” displayed a caspase activation (% of PBS control) of 221.
The sequence “TGGCAAGCATCCTGTA (sugars l3 d8 l3 d1 l1, PS)” had a caspase activation (% of PBS control) of 449.
On to TGGCAAGCATCCTGTA (sugars l3 d8 l5, PS), for which the caspase activation (% of PBS control) was determined as 476.
As for “TGGCAAGCATCCTGTA (sugars l3 d9 l1 d1 l2, PS)”, the figure is 416.
In turn, “TGGCAAGCATCCTGTA (sugars l3 d9 l1 d2 l1, PS)” came in with a caspase activation (% of PBS control) of 210.
For the sequence “TGGCAAGCATCCTGTA (sugars l3 d9 l2 d1 l1, PS)”, the caspase activation (% of PBS control) was found to be 634.
TGGCAAGCATCCTGTA (sugars l3 d9 l4, PS): the caspase activation (% of PBS control) is 582.
With “TGGCAAGCATCCTGTA (sugars l3 d10 l1 d1 l1, PS)”, the caspase activation (% of PBS control) stood at 251.
As for TGGCAAGCATCCTGTA (sugars l3 d10 l3, PS), the figure is 273; as for TGGCAAGCATCCTGTA (sugars l3 d11 l2, PS), 314.
In turn, TGGCAAGCATCCTGTA (sugars l3 d12 l1, PS) had a caspase activation (% of PBS control) of 237.
For the sequence “TGGCAAGCATCCTGTA (sugars l4 d7 l1 d1 l3, PS)”, the caspase activation (% of PBS control) came out at 522.
As for “TGGCAAGCATCCTGTA (sugars l4 d7 l1 d2 l2, PS)”, the caspase activation (% of PBS control) was found to be 323.
Sequence “TGGCAAGCATCCTGTA (sugars l4 d7 l1 d3 l1, PS)” registered a caspase activation (% of PBS control) of 299.
“TGGCAAGCATCCTGTA (sugars l4 d7 l2 d1 l2, PS)” returned a caspase activation (% of PBS control) of 572.
For the sequence “TGGCAAGCATCCTGTA (sugars l4 d7 l2 d2 l1, PS)”, the caspase activation (% of PBS control) came to 528.
“TGGCAAGCATCCTGTA (sugars l4 d7 l3 d1 l1, PS)”: the caspase activation (% of PBS control) came to 575.
Under TGGCAAGCATCCTGTA (sugars l4 d7 l5, PS) stands 414; under “TGGCAAGCATCCTGTA (sugars l4 d8 l1 d1 l2, PS)”, 385.
On to “TGGCAAGCATCCTGTA (sugars l4 d8 l1 d2 l1, PS)”, for which the caspase activation (% of PBS control) worked out at 429.
Consider “TGGCAAGCATCCTGTA (sugars l4 d8 l2 d1 l1, PS)”, for which the caspase activation (% of PBS control) was 425.
On to TGGCAAGCATCCTGTA (sugars l4 d8 l4, PS), for which the caspase activation (% of PBS control) was found to be 349.
Consider “TGGCAAGCATCCTGTA (sugars l4 d9 l1 d1 l1, PS)”, for which the caspase activation (% of PBS control) was found to be 425.
In the case of TGGCAAGCATCCTGTA (sugars l4 d9 l3, PS), the caspase activation (% of PBS control) came to 412.
Consider TGGCAAGCATCCTGTA (sugars l4 d10 l2, PS), for which the caspase activation (% of PBS control) amounted to 396.
With TGGCAAGCATCCTGTA (sugars l4 d11 l1, PS), the caspase activation (% of PBS control) stood at 422.
The sequence “TGGCAAGCATCCTGTA (sugars l5 d6 l1 d1 l3, PS)” returned a caspase activation (% of PBS control) of 443.
The sequence “TGGCAAGCATCCTGTA (sugars l5 d6 l1 d2 l2, PS)” gave a caspase activation (% of PBS control) of 399.
On to “TGGCAAGCATCCTGTA (sugars l5 d6 l1 d3 l1, PS)”, for which the caspase activation (% of PBS control) was 371.
Consider “TGGCAAGCATCCTGTA (sugars l5 d6 l2 d1 l2, PS)”, for which the caspase activation (% of PBS control) stood at 367.
The sequence “TGGCAAGCATCCTGTA (sugars l5 d6 l2 d2 l1, PS)” yielded a caspase activation (% of PBS control) of 344.
“TGGCAAGCATCCTGTA (sugars l5 d6 l3 d1 l1, PS)”: the caspase activation (% of PBS control) was 366.
As for TGGCAAGCATCCTGTA (sugars l5 d6 l5, PS), the figure is 445.
“TGGCAAGCATCCTGTA (sugars l5 d7 l1 d1 l2, PS)” registered a caspase activation (% of PBS control) of 390.
For “TGGCAAGCATCCTGTA (sugars l5 d7 l1 d2 l1, PS)”, the caspase activation (% of PBS control) amounted to 386.
Sequence “TGGCAAGCATCCTGTA (sugars l5 d7 l2 d1 l1, PS)” came in with a caspase activation (% of PBS control) of 381.
TGGCAAGCATCCTGTA (sugars l5 d7 l4, PS) displayed a caspase activation (% of PBS control) of 358.
Under “TGGCAAGCATCCTGTA (sugars l5 d8 l1 d1 l1, PS)” stands 401; under TGGCAAGCATCCTGTA (sugars l5 d8 l3, PS), 360.
Sequence TGGCAAGCATCCTGTA (sugars l5 d9 l2, PS) gave a caspase activation (% of PBS control) of 402.
As for TGGCAAGCATCCTGTA (sugars l5 d10 l1, PS), the figure is 403.
In turn, “TGGCAAGCATCCTGTA (sugars lddddddddddldldl, PS)” returned a caspase activation (% of PBS control) of 228.
The sequence “TGGCAAGCATCCTGTA (sugars ldddlddddddddldl, PS)” showed a caspase activation (% of PBS control) of 139.
In turn, “TGGCAAGCATCCTGTA (sugars ldddldddddddlddl, PS)” registered a caspase activation (% of PBS control) of 173.
Consider “TGGCAAGCATCCTGTA (sugars ldddldddddddldll, PS)”, for which the caspase activation (% of PBS control) worked out at 245.
“TGGCAAGCATCCTGTA (sugars ldddldddddddlldl, PS)” gave a caspase activation (% of PBS control) of 167.
“TGGCAAGCATCCTGTA (sugars ldddlddddddldddl, PS)” registered a caspase activation (% of PBS control) of 159.
Turning to “TGGCAAGCATCCTGTA (sugars ldddlddddddlddll, PS)”, the caspase activation (% of PBS control) came to 221.
As for “TGGCAAGCATCCTGTA (sugars ldddlddddddldldl, PS)”, the figure is 213; as for “TGGCAAGCATCCTGTA (sugars ldddlddddddldlll, PS)”, 230.
Sequence “TGGCAAGCATCCTGTA (sugars ldddlddddddllddl, PS)” gave a caspase activation (% of PBS control) of 246.
As for “TGGCAAGCATCCTGTA (sugars ldddlddddddlldll, PS)”, the figure is 285; as for “TGGCAAGCATCCTGTA (sugars ldddlddddddllldl, PS)”, 224; as for “TGGCAAGCATCCTGTA (sugars lddldddddddddldl, PS)”, 200.
As for “TGGCAAGCATCCTGTA (sugars lddlddddddddlddl, PS)”, the figure is 312; as for “TGGCAAGCATCCTGTA (sugars lddlddddddddldll, PS)”, 371; as for “TGGCAAGCATCCTGTA (sugars lddlddddddddlldl, PS)”, 392.
As for “TGGCAAGCATCCTGTA (sugars lddldddddddldddl, PS)”, the figure is 173; as for “TGGCAAGCATCCTGTA (sugars lddldddddddlddll, PS)”, 271.
As for “TGGCAAGCATCCTGTA (sugars lddldddddddldldl, PS)”, the caspase activation (% of PBS control) came out at 274.
The sequence “TGGCAAGCATCCTGTA (sugars lddldddddddldlll, PS)” came in with a caspase activation (% of PBS control) of 303.
With “TGGCAAGCATCCTGTA (sugars lddldddddddllddl, PS)”, the caspase activation (% of PBS control) stood at 314.

These data come from the OligoGym collection.
